A word on the IC50: it is the concentration needed to halve the response being measured.

These results are taken from patent US11104631B1, “Isopentenyl chalcone compound and preparation method thereof” (SOUTH CHINA BOTANICAL GARDEN, CHINESE ACADEMY OF SCIENCES, priority 2018, dated 2021).

Data set [1] is described as follows: DPPH radical scavenging assay. The class given is biochemical. The conditions noted are these: 0.2 mM DPPH in ethanol, dark, room temperature, 30 minutes, absorbance at 517 nm; read-out: IC50 value against DPPH radicals. The procedure:
DPPH is a stable free radical. When a free radical scavenger is present, light absorption of DPPH will be reduced when the single electron is scavenged, which allows to evaluate free radical scavenging ability of the substance and accordingly determine antioxidant ability thereof. The DPPH radical scavenging ability of the compound 2,2′,4,4′-tetrahydroxy-3′-(2″,3″-dihydroxy-3″-methylbutyl)chalcone was measured through the DPPH radical scavenging assay, so as to evaluate the antioxidant ability of the compound. The assay comprised the following steps: 1,1-Diphenyl-2-picrylhydrazyl (DPPH) was dissolved in absolute ethanol to obtain a solution with a concentration of 0.2 mM. The compound 2,2′,4,4′-tetrahydroxy-3′-(2″,3″-dihydroxy-3″-methylbutyl)chalcone was dissolved in absolute ethanol. 80 μL of the ethanol solution of 2,2′,4,4′-tetrahydroxy-3′-(2″,3″-dihydroxy-3″-methylbutyl)chalcone and 160 μL of the 0.2 mM DPPH ethanol solution were mixed and the mixture was placed in dark at room temperature for 30 minutes. Then, light absorbance at 517 nm was measured using a microplate reader (SpectraMax 190, Molecular Devices, USA), and Vc was employed as a positive control.
Background: The DPPH test is a chemical assay of radical scavenging.

Data set [2] in a line: Solubility in methanol. In kind it is physicochemical.

Regarding `O=C1O[C@H]([C@@H](O)CO)C(O)=C1O` [Vc, vitamin C, reference compound], in data set [1], the half-inhibitory concentration (IC50) is 100 µM.
Consider `CC(C)(O)C(O)Cc1c(O)ccc(C(=O)/C=C/c2ccc(O)cc2O)c1O` (stereo not drawn) [compound 1, 2,2′,4,4′-tetrahydroxy-3′-(2″,3″-dihydroxy-3″-methylbutyl)chalcone], for which, in data set [1], the IC50 turned out to be 27.6 µM. In addition, the solubility in methanol entry in data set [2] is “easily soluble in methanol”.
